These results are taken from patent publication US20250332151A1, “METHODS OF TREATMENT FOR CYSTIC FIBROSIS” (Vertex Pharmaceuticals Incorporated, priority 2022, published 2025).

Data set [1] can be described thus: First-in-human (FIH) clinical study of safety, tolerability and PK in healthy subjects. It is filed as in vivo. The conditions noted are these: single doses 3 mg to 1500 mg (Part A), total daily doses 10 mg to 300 mg for ten days (Part B), Part C, suspension, all cohorts. The method, then: In a first-in-human (FIH) clinical study of Compound I, the safety, tolerability, and pharmacokinetics (PK) of Compound I in healthy subjects was evaluated. Assessments of the relative bioavailability (BA) of Suspension 2 of Compound I compared to Suspension 1 of Compound I, food effect, and drug drug interactions (DDIs) between Compound I and itraconazole and midazolam were conducted.
This first-in-human (FIH) study of Compound I included three parts (Parts A, B, and C).
Approximately 154 healthy adult subjects were planned to be enrolled in planned cohorts. Approximately 76 subjects were planned to be enrolled in Part A (excluding optional Part A Cohorts), approximately 48 subjects in Part B (excluding optional Part B Cohorts), and approximately 30 subjects in Part C. There was no pre-specified ratio of males to females, but reasonable effort was made to enroll females of non-childbearing potential in all dosing cohorts.
Six dose escalation cohorts were planned for Part A, and five dose escalation cohorts were planned for Part B. Additional cohorts (A7 and A8) in Part A were enrolled based on data from previous cohorts. […]
Food effect was evaluated in an open label, single sequence Cohort A9 to evaluate the effect of food on the PK of Compound I based on emerging PK data during dose escalation. […]

For data set [2], the target named is T1, CFTR in F508del/MF-HBE cells (Homo sapiens, UniProt P13569, DEL508-508).
T1 construct: human bronchial epithelial (HBE) cells derived from CF subjects; endogenous in cells; host or cells: primary human bronchial epithelial cells from CF subjects (F508del/MF-HBE)
T1 sequence (P13569 with tags, fused parts or gaps DEL508-508): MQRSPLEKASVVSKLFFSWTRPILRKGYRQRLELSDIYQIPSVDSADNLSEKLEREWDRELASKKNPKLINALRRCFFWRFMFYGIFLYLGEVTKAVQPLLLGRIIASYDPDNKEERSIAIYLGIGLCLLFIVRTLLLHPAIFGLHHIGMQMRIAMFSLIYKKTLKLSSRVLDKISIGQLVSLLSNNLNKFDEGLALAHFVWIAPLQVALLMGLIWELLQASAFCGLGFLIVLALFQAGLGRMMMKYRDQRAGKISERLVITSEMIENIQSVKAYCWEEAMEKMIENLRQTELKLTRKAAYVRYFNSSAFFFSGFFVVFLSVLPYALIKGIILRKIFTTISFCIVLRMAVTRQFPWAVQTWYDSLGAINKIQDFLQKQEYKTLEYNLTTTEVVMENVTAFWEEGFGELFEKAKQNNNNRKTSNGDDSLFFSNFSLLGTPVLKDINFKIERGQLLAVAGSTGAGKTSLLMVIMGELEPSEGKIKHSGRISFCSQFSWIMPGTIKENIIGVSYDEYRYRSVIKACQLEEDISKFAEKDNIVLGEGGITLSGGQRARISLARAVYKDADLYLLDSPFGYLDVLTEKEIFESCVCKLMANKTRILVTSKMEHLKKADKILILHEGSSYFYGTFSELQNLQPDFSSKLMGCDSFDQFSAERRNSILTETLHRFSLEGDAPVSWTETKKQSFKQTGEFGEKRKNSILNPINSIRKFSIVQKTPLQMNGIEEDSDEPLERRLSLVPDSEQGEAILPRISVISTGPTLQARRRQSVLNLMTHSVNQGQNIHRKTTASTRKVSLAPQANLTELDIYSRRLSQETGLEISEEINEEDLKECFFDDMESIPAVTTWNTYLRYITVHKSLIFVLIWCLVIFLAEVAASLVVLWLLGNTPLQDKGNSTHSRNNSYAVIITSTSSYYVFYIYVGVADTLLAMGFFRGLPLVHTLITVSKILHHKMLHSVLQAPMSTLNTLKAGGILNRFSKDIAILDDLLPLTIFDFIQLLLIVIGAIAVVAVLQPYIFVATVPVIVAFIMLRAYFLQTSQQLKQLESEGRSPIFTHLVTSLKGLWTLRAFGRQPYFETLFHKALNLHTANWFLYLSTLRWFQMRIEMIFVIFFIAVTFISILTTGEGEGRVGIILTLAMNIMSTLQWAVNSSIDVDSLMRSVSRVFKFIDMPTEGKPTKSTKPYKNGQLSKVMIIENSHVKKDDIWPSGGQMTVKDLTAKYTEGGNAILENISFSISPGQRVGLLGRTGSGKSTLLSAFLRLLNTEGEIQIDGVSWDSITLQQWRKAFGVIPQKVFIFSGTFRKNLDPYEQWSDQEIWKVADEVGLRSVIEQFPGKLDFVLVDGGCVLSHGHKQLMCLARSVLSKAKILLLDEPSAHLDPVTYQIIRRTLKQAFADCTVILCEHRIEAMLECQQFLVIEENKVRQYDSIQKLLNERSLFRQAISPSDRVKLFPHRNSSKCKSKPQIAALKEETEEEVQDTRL
As to the kind of experiment: Ussing chamber assay of CFTR-mediated short-circuit currents (potentiator activity). It is filed as cell-based. Conditions: 18-24 hours at 37° C. with 10 μM Compound VII, 20% human serum, CFTR-mediated ISC. The method, then:
Ussing chamber experiments were performed using human bronchial epithelial (HBE) cells derived from CF subjects heterozygous for F508del and a minimal function CFTR mutation (F508del/MF-HBE) and cultured as previously described (Neuberger T, Burton B, Clark H, Van Goor F Methods Mol Biol 2011:741:39-54). After four days the apical media was removed, and the cells were grown at an air liquid interface for >14 days prior to use.
To isolate the CFTR-mediated short-circuit (ISC) current, F508del/MF-HBE grown on Costar® Snapwell™ cell culture inserts were mounted in an Ussing chamber and the transepithelial ISC was measured under voltage-clamp recording conditions (Vhold=0 mV) at 37° C. The basolateral solution contained (in mM) 145 NaCl, 0.83 K2HPO4, 3.3 KH2PO4, 1.2 MgCl2, 1.2 CaCl2), 10 Glucose, 10 HEPES (pH adjusted to 7.4 with NaOH) and the apical solution contained (in mM) 145 NaGluconate, 1.2 MgCl2, 1.2 CaCl2), 10 glucose, 10 HEPES (pH adjusted to 7.4 with NaOH) and 30 μM amiloride to block the epithelial sodium channel. […] The CFTR-mediated ISC (uA/cm2) for each condition was determined from the peak forskolin response to the steady-state current following inhibition.
The activity of the CFTR potentiator compounds on the CFTR-mediated ISC was determined in Ussing chamber studies as described above. […]

Some results are limits rather than exact numbers.

By EC50 is commonly meant the midpoint of the concentration-response curve. For `CC1(C)CCCCC[C@](O)(C(F)(F)F)C2=NN=C(O2)c2nc(c(C(F)(F)F)cc2N)N1` [Compound I, (6R)-17-amino-12,12-dimethyl-6,15-bis(trifluoromethyl)-19-oxa-3,4,13,18-tetrazatricyclo[12.3.1.12,5]nonadeca-1 (18),2,4,14,16-pentaen-6-ol], in data set [1], the safety and tolerability result is “generally safe and well-tolerated”. Also, in data set [2], the EC50 was less than 500 nM.
